One series has as its system human neutrophils. Description: Flow cytometric analysis of neutrophil cytotoxicity (PI cell death, forward scatter). The note with it: for increase in forward scatter: pancreatic proteases alone; for cytotoxicity to neutrophils: pure proteases at the tested concentrations. The series is classed as cell-based. On the procedure: Cytotoxicity measurement—flow cytometric analysis of neutrophil cytotoxicity: For measurements of cell death and forward scatter (a measure of cell “size”) by flow cytometry, 100 μl of sample were mixed with 100 μl of cells (10^6 cells/ml final) and after selected periods of incubation, a life/death indicator (200 μl of 2 μM propidium iodide, PI) was added. Within seconds of PI addition, the sample was tested in a flow cytometer (Beckton-Dickson FACScan; Franklin Lakes N.J.).
Flow cytometric analysis of neutrophils was carried out by plotting forward scatter (FSC) on the ordinate and FL-2 (PI fluorescence) on the abscissa. […] Two regions on the scatter plot were gated. Region 1 (R1) was for live cells, and was constructed to monitor an increase in cell size that results from bleb formation and also to observe the small uptake of PI that occur may prior to total membrane failure. […] Ten thousand cells were evaluated per sample. Cell death was reported as the percentage of total cells located in R2, i.e., Death=100%*(# in R2)/(# in R1+# in R2).

Series [1] deals with digestive enzymes in luminal contents. Description: Protease activity of wall homogenates digested with filtered luminal fluid with or without protease inhibitors. The format is biochemical, rat. The following applies: filtered luminal fluid plus inhibitor incubated with wall homogenates 3 hours at 37° C.; final 1 mM PMSF, 1.25 mg/ml (2.31 mM) ANGD. The text has this:
(§1) To determine if enzyme inhibition could prevent the generation of cytotoxic mediators from luminal contents, luminal fluids were pre-filtered through three glass fiber filters in series, a procedure that reduces cytotoxic activity, allowing the experiments to be focused solely on new cytotoxic mediator formation. […] The precipitate was separated following the digestion period and the supernatant collected. All samples were then aliquotted and frozen for later measurements of protease activity and neutrophil cytotoxicity.

A further series has as its system casein. As to the kind of experiment: Protease activity measurement (Enzcheck casein kit) of proteases, homogenates and luminal fluids. The format is biochemical. The note with it: mixed with equal volume of PBS; fluorescence after 90 minutes; mean±SD, N=6. The method, then:
In vitro studies of intestinal wall homogenate digested with proteases—enzymatic digestion of wall homogenates: Wall homogenates were rapidly thawed at 37° C. and mixed with equal volumes of PBS, TPCK-treated trypsin, TLCK-treated chymotrypsin, or elastase. Controls of the proteases alone also were created by mixing them with equal volumes of PBS. Since lower grades of trypsin are often contaminated with the activity of chymotrypsin and vice versa, trypsin pretreated with TPCK (a specific chymotrypsin inhibitor) and chymotrypsin pretreated with TLCK (a trypsin inhibitor) were used to reduce any effects of cross contamination. Before mixing with wall homogenate, the enzymes were reconstituted in PBS at the following concentrations: 1 mg/ml for TPCK-treated trypsin, 1 mg/ml for TLCK-treated chymotrypsin, and 0.5 mg/ml for elastase.
The groups were treated as follows: the luminal fluids from 5 animals were incubated separately (37° C., 3 hours) and aliquots of each sample were collected. One aliquot was filtered through 4 glass fiber pre-filters in series. The unfiltered and filtered aliquots were mixed with equal volumes of PBS (to generate the Lumen and Filtered Lumen groups, respectively) or with wall homogenate from the same animal (to generate the Wall+Lumen and Wall+Filtered Lumen groups, respectively). The Wall group was prepared by mixing wall homogenates with equal volumes of PBS. All samples were incubated at 37° C. for 3 additional hours, aliquotted, and frozen (−70° C.) for later evaluation of neutrophil cytotoxicity and protease activity.

Series [2] in a line: Solubility of ANGD in luminal fluid. The format is physicochemical. The note with it: with or without glucose; white precipitate formed.
Text: as §1

The mark [3] stands for this setting: wall homogenates digested with filtered luminal fluid with inhibitor, exposure 20, 30 or 40 minutes.

Turning to `O=S(=O)(F)Cc1ccccc1` [PMSF, phenylmethylsulfonyl fluoride], in the series on human neutrophils (PMSF added after digestion of wall homogenate by chymotrypsin, not statistically significant), the “cytotoxicity compared to samples without PMSF” value is “slightly increased cytotoxicity”. Also, the neutrophil cell death result is reported as “no cell death” in the series with human neutrophils (PMSF added prior to digestion of wall homogenate by chymotrypsin) and “Neither PMSF nor ANGD alone entirely prevented cell death” in the series with human neutrophils (setting [3]). Besides, in series [1], the “protease activity inhibited in the digested homogenates” value is recorded as “approximately half”.

For the molecule trypsin, in the series with human neutrophils, the “increase in forward scatter” value is “no significant effect” and the cytotoxicity to neutrophils result is “not cytotoxic”. This molecule also showed a protease activity in the series with casein of 300±33 RFU.

“elastase: pancreatic elastase from Worthington Biochemicals, 0.5 mg/ml in PBS”: in the series on human neutrophils, the “increase in forward scatter” value was “greatest increase” and the cytotoxicity to neutrophils result is on record as “not cytotoxic”. This molecule returned a protease activity in the series on casein of 2389±300 RFU.

Take chymotrypsin: in the series with human neutrophils, the “increase in forward scatter” value is on record as “significantly elevated at 90 minutes” and the cytotoxicity to neutrophils entry is “not cytotoxic”. In the series with casein, this molecule registered a protease activity of 2371±230 RFU.

As for `CS(=O)(=O)O.CS(=O)(=O)O.N=C(N)Nc1ccc(C(=O)Oc2ccc3cc(C(=N)N)ccc3c2)cc1` [ANGD, 6-amidino-2-naphthyl p-guanidinobenzoate dimethanesulfonate], in the series on human neutrophils (setting [3]), the neutrophil cell death entry is “significantly decrease the cell death compared to controls” and the neutrophil forward scatter entry is “prevented the large increase in forward scatter”. The “protease activity inhibited in the digested homogenates” value in series [1] was “less effective”. Also, the “solubility in the luminal fluid” value in series [2] is given as “not completely soluble”.
